With `CCCCCCCCCCCC(=O)NCCCN(C)C` [D, dodecylamidopropyl dimethylamine] the “stability at high temperature” value was “not stable”.

From patent US20200010756A1, “SURFACTANT FOR ENHANCED OIL RECOVERY” (Total S.A., priority 2017, published 2020)
